Test results as given in patent publication US6713493B2, “Use of nicergoline in the treatment of spasticity” (Aventis Pharma S.A., priority 1998, dated 2004).

Assays:
[1] = test system: spasticity in amyotrophic lateral sclerosis; conditions: riluzole sold as Rilutek for ALS; cited from earlier work
[2] = test system: stiffness (spasticity) in patients suffering from ALS; experiment: Descriptive study on 9 ALS patients: stiffness self-assessed on a 100 mm visual analog scale (VAS) before and after nicergoline; type: in vivo, human (patients)
Description: A descriptive study on 9 patients suffering from ALS was carried out. The main criterion defined is the stiffness, measured using a visual analog scale (VAS), of 100 mm, or the individual rates by self-assessment the severity of the stiffness perceived. The patients receive 100 mg/day of riluzole and 15 mg IV of nicergoline on the first day and 30 mg IV on the next 4 days. The duration of infusion was more than 4 hours to avoid any risk of hypotension. The measurement was carried out before and after administration of nicergoline.

SMILES	Effect on spasticity (in words) [1]	Stiffness (VAS, 100 mm) after administration of nicergoline, mean±standard deviation ([2]; 9 ALS patients on riluzole 100 mg/day, nicergoline 15 mg IV day 1, 30 mg IV next 4 days, measured 4 days later (from 4 to 8 d), stiffness before administration 67.33±25)	Intra-individual difference in stiffness (VAS) before vs after nicergoline, mean±standard deviation ([2]; 9 ALS patients, same regimen, range −8 to +57, comparison at zero difference significant (t=2.809, p (2α)=0.0229))	Effect on pyramidal spasticity of neurological diseases involving an attack of the pyramidal pathway (in words) ([2]; in particular spasticity during ALS)
Nc1nc2ccc(OC(F)(F)F)cc2s1 [Riluzole, 2-amino-6-trifluoro-methoxybenzothiazole]	no effect on the spasticity	–	–	–
CO[C@]12C[C@@H](COC(=O)c3cncc(Br)c3)CN(C)[C@@H]1Cc1cn(C)c3cccc2c13 [nicergoline, (8β)-10-methoxy-1,6-dimethylergoline-8-methanol-5-bromonicotinate]	–	48.11±19 mm	19.22±20.5 mm	reduces the pyramidal spasticity
